Data: patent US8835378B2, “Multi-domain amphipathic helical peptides and methods of their use” (The United States of America as represented by the …, priority 2004, dated 2014)
Where a SMILES comes first, the peptide text is derived from it.

How the values were obtained:
[1] = tested on: HeLa cells stably transfected with human ABCA1 cDNA (ABCA1 cells); assay: Cholesterol and phospholipid efflux from ABCA1 transfected cells; format: cell-based; settings: for cholesterol and phospholipid efflux from ABCA1 cells (in words): 18 hours; for cholesterol efflux to other detergents compared with taurodeoxycholate: sublytic concentrations, ABCA1 cells and control cells
Experimental: (§1) Percentage efflux was calculated after subtracting the radioactive counts in the blank media (αMEM plus 1 mg/ml of BSA), and expressed as the percent of total radioactive counts removed from the cells during the efflux period.
(§2) Cell fixation was performed by a 10 minute treatment with 3% paraformaldehyde in phosphate buffered saline (PBS), followed by three washes with blank media. Lactate dehydrogenase (LDH) release from cells into the media was measured enzymatically (Roche Diagnostics, Indianapolis, Ind.) and expressed, after subtraction of LDH released into blank media, as the percentage of total cell LDH. Total cell LDH was determined after cell solubilization with 1% Triton X-100.

[2] = tested on: HeLa cells transfected with only a hygromycin-resistant control plasmid (control cells); assay: Cholesterol and phospholipid efflux from control cells; format: cell-based, human; settings: for cholesterol and phospholipid efflux from control cells (in words): 18 hours
Experimental: as §1, §2

[3] = tested on: ABCA1 cells and control cells; assay: Cell morphology by light microscopy during efflux experiments; format: cell-based, human; settings: light microscopy, during efflux experiments
red blood cells = assay: Red blood cell hemolysis assay; format: cell-based; settings: 1 hour at 37° C.
Experimental: Red blood cells were incubated with the indicated concentration of the peptides for 1 hour at 37° C. Results are expressed as the mean of triplicates±1 SD.
Approximately 25% of the red blood cells were lysed after 1 hour at the maximum dose tested (FIG. 9). Overall, the modified peptides containing the Ala substitutions were less cytotoxic, and the degree of cytotoxicity closely correlated with the number of Ala substitutions.

## RMRITERDDFRGQMSEITDDCPSLQDRFHLTEVHSLRVLEGS (Gamma crystalline peptide.) [contains two non-amphipathic alpha helices of approximately the same length as the helices on 37pA, reference compound]
[1]
  cholesterol and phospholipid efflux from ABCA1 cells (in words): completely ineffective
[2]
  cholesterol and phospholipid efflux from control cells (in words): completely ineffective

## C[C@H](CCC(=O)NCCC[N+](C)(C)CCCS(=O)(=O)[O-])[C@H]1CC[C@H]2[C@@H]3[C@H](O)C[C@@H]4C[C@H](O)CC[C@]4(C)[C@H]3C[C@H](O)[C@]12C [CHAPS]
[1]
  cholesterol efflux to other detergents compared with taurodeoxycholate: Nearly identical results

## C[C@H](CCC(=O)NCCS(=O)(=O)O)[C@H]1CC[C@H]2[C@@H]3CC[C@@H]4C[C@H](O)CC[C@]4(C)[C@H]3C[C@H](O)[C@]12C [taurodeoxycholate, reference compound]
[1]; 0.02%, 1 hour, after fixation with 3% paraformaldehyde
  cholesterol efflux from ABCA1 cells to detergent after fixation: slightly increased after fixation
[1]; 0.02%, 1 hour, before fixation
  cholesterol efflux from ABCA1 cells to detergent: small amount of cholesterol efflux
[2]; 0.02%, 1 hour
  cholesterol efflux from control cells to detergent: Approximately the same amount of cholesterol efflux
[3]
  effect on cell morphology: did not alter the morphology of the cells

## CC(C)C[C@H](NC(=O)[C@H](Cc1c[nH]c2ccccc12)NC(=O)[C@H](CC(=O)O)NC(=O)[C@@H]1CCCN1C(=O)[C@H](Cc1ccccc1)NC(=O)[C@H](C)NC(=O)[C@H](CCC(=O)O)NC(=O)[C@H](CCCCN)NC(=O)[C@H](CC(C)C)NC(=O)[C@H](CCCCN)NC(=O)[C@H](CCC(=O)O)NC(=O)[C@H](C)NC(=O)[C@@H](NC(=O)[C@H](CCCCN)NC(=O)[C@H](CC(=O)O)NC(=O)[C@H](Cc1ccc(O)cc1)NC(=O)[C@H](Cc1ccccc1)NC(=O)[C@H](C)NC(=O)[C@H](CCCCN)NC(=O)[C@H](CC(C)C)NC(=O)[C@H](Cc1c[nH]c2ccccc12)NC(=O)[C@@H](N)CC(=O)O)C(C)C)C(=O)N[C@@H](CCCCN)C(=O)N[C@@H](C)C(=O)N[C@@H](C)C(=O)N[C@@H](Cc1ccc(O)cc1)C(=O)N[C@@H](CC(=O)O)C(=O)N[C@@H](CCCCN)C(=O)N[C@@H](C)C(=O)N[C@@H](C)C(=O)N[C@@H](CCC(=O)O)C(=O)N[C@@H](CCCCN)C(=O)N[C@@H](C)C(=O)N[C@@H](CCCCN)C(=O)N[C@@H](CCC(=O)O)C(=O)N[C@@H](C)C(=O)N[C@@H](C)C(=O)O [4A] (H-DWLKAFYDKVAEKLKEAFPDWLKAAYDKAAEKAKEAA-OH; N-terminus and C-terminus assumed)
Red blood cells
  hemolysis / cytotoxicity to red blood cells (in words): no appreciable hemolysis

## DWLKAFYDKVAEKLKEAFPDWLKAFYDKVA EKLKEAF [37pA, reference compound]
[1]
  cholesterol and phospholipid efflux from ABCA1 cells (in words): promoted ABCA1-mediated cholesterol efflux
[2]
  cholesterol and phospholipid efflux from control cells (in words): able to mediate cholesterol efflux from a control HeLa cell line

## CC(C)C[C@H](NC(=O)[C@H](CCCCN)NC(=O)[C@H](CCC(=O)O)NC(=O)[C@H](C)NC(=O)[C@@H](NC(=O)[C@H](CCCCN)NC(=O)[C@H](CC(=O)O)NC(=O)[C@H](Cc1ccc(O)cc1)NC(=O)[C@H](Cc1ccccc1)NC(=O)[C@H](C)NC(=O)[C@H](CCCCN)NC(=O)[C@H](CC(C)C)NC(=O)[C@H](Cc1c[nH]c2ccccc12)NC(=O)[C@@H](N)CC(=O)O)C(C)C)C(=O)N[C@@H](CCCCN)C(=O)N[C@@H](CCC(=O)O)C(=O)N[C@@H](C)C(=O)N[C@@H](Cc1ccccc1)C(=O)N1CCC[C@H]1C(=O)N[C@@H](CC(=O)O)C(=O)N[C@@H](Cc1c[nH]c2ccccc12)C(=O)N[C@@H](C)C(=O)N[C@@H](CCCCN)C(=O)N[C@@H](C)C(=O)N[C@@H](C)C(=O)N[C@@H](Cc1ccc(O)cc1)C(=O)N[C@@H](CC(=O)O)C(=O)N[C@@H](CCCCN)C(=O)N[C@@H](C)C(=O)N[C@@H](C)C(=O)N[C@@H](CCC(=O)O)C(=O)N[C@@H](CCCCN)C(=O)N[C@@H](C)C(=O)N[C@@H](CCCCN)C(=O)N[C@@H](CCC(=O)O)C(=O)N[C@@H](C)C(=O)N[C@@H](C)C(=O)O [5A] (H-DWLKAFYDKVAEKLKEAFPDWAKAAYDKAAEKAKEAA-OH; N-terminus and C-terminus assumed)
Red blood cells
  hemolysis / cytotoxicity to red blood cells (in words): no appreciable hemolysis

## NP-40
[1]
  cholesterol efflux to other detergents compared with taurodeoxycholate: Nearly identical results

## CC(C)C[C@H](NC(=O)[C@H](Cc1c[nH]c2ccccc12)NC(=O)[C@H](CC(=O)O)NC(=O)[C@@H]1CCCN1C(=O)[C@H](Cc1ccccc1)NC(=O)[C@H](C)NC(=O)[C@H](CCC(=O)O)NC(=O)[C@H](CCCCN)NC(=O)[C@H](CC(C)C)NC(=O)[C@H](CCCCN)NC(=O)[C@H](CCC(=O)O)NC(=O)[C@H](C)NC(=O)[C@@H](NC(=O)[C@H](CCCCN)NC(=O)[C@H](CC(=O)O)NC(=O)[C@H](Cc1ccc(O)cc1)NC(=O)[C@H](Cc1ccccc1)NC(=O)[C@H](C)NC(=O)[C@H](CCCCN)NC(=O)[C@H](CC(C)C)NC(=O)[C@H](Cc1c[nH]c2ccccc12)NC(=O)[C@@H](N)CC(=O)O)C(C)C)C(=O)N[C@@H](CCCCN)C(=O)N[C@@H](C)C(=O)N[C@@H](Cc1ccccc1)C(=O)N[C@@H](Cc1ccc(O)cc1)C(=O)N[C@@H](CC(=O)O)C(=O)N[C@@H](CCCCN)C(=O)N[C@H](C(=O)N[C@@H](C)C(=O)N[C@@H](CCC(=O)O)C(=O)N[C@@H](CCCCN)C(=O)N[C@@H](C)C(=O)N[C@@H](CCCCN)C(=O)N[C@@H](CCC(=O)O)C(=O)N[C@@H](C)C(=O)N[C@@H](Cc1ccccc1)C(=O)O)C(C)C [1A] (H-DWLKAFYDKVAEKLKEAFPDWLKAFYDKVAEKAKEAF-OH; N-terminus and C-terminus assumed)
Red blood cells
  hemolysis / cytotoxicity to red blood cells (in words): moderate degree of hemolysis

## CC(C)C[C@H](NC(=O)[C@H](Cc1c[nH]c2ccccc12)NC(=O)[C@H](CC(=O)O)NC(=O)[C@@H]1CCCN1C(=O)[C@H](Cc1ccccc1)NC(=O)[C@H](C)NC(=O)[C@H](CCC(=O)O)NC(=O)[C@H](CCCCN)NC(=O)[C@H](CC(C)C)NC(=O)[C@H](CCCCN)NC(=O)[C@H](CCC(=O)O)NC(=O)[C@H](C)NC(=O)[C@@H](NC(=O)[C@H](CCCCN)NC(=O)[C@H](CC(=O)O)NC(=O)[C@H](Cc1ccc(O)cc1)NC(=O)[C@H](Cc1ccccc1)NC(=O)[C@H](C)NC(=O)[C@H](CCCCN)NC(=O)[C@H](CC(C)C)NC(=O)[C@H](Cc1c[nH]c2ccccc12)NC(=O)[C@@H](N)CC(=O)O)C(C)C)C(=O)N[C@@H](CCCCN)C(=O)N[C@@H](C)C(=O)N[C@@H](C)C(=O)N[C@@H](Cc1ccc(O)cc1)C(=O)N[C@@H](CC(=O)O)C(=O)N[C@@H](CCCCN)C(=O)N[C@H](C(=O)N[C@@H](C)C(=O)N[C@@H](CCC(=O)O)C(=O)N[C@@H](CCCCN)C(=O)N[C@@H](C)C(=O)N[C@@H](CCCCN)C(=O)N[C@@H](CCC(=O)O)C(=O)N[C@@H](C)C(=O)N[C@@H](C)C(=O)O)C(C)C [3A] (H-DWLKAFYDKVAEKLKEAFPDWLKAAYDKVAEKAKEAA-OH; N-terminus and C-terminus assumed)
Red blood cells
  hemolysis / cytotoxicity to red blood cells (in words): moderate degree of hemolysis

## CC(C)C[C@H](NC(=O)[C@H](Cc1c[nH]c2ccccc12)NC(=O)[C@H](CC(=O)O)NC(=O)[C@@H]1CCCN1C(=O)[C@H](Cc1ccccc1)NC(=O)[C@H](C)NC(=O)[C@H](CCC(=O)O)NC(=O)[C@H](CCCCN)NC(=O)[C@H](CC(C)C)NC(=O)[C@H](CCCCN)NC(=O)[C@H](CCC(=O)O)NC(=O)[C@H](C)NC(=O)[C@@H](NC(=O)[C@H](CCCCN)NC(=O)[C@H](CC(=O)O)NC(=O)[C@H](Cc1ccc(O)cc1)NC(=O)[C@H](Cc1ccccc1)NC(=O)[C@H](C)NC(=O)[C@H](CCCCN)NC(=O)[C@H](CC(C)C)NC(=O)[C@H](Cc1c[nH]c2ccccc12)NC(=O)[C@@H](N)CC(=O)O)C(C)C)C(=O)N[C@@H](CCCCN)C(=O)N[C@@H](C)C(=O)N[C@@H](Cc1ccccc1)C(=O)N[C@@H](Cc1ccc(O)cc1)C(=O)N[C@@H](CC(=O)O)C(=O)N[C@@H](CCCCN)C(=O)N[C@H](C(=O)N[C@@H](C)C(=O)N[C@@H](CCC(=O)O)C(=O)N[C@@H](CCCCN)C(=O)N[C@@H](C)C(=O)N[C@@H](CCCCN)C(=O)N[C@@H](CCC(=O)O)C(=O)N[C@@H](C)C(=O)N[C@@H](C)C(=O)O)C(C)C [2A] (H-DWLKAFYDKVAEKLKEAFPDWLKAFYDKVAEKAKEAA-OH; N-terminus and C-terminus assumed)
Red blood cells
  hemolysis / cytotoxicity to red blood cells (in words): moderate degree of hemolysis
